Article PMC6407913, “DREADD Agonist 21 Is an Effective Agonist for Muscarinic-Based DREADDs in Vitro and in Vivo” (ACS Pharmacology & Translational Science, 2018)
Positions count from the first letter of the chain named. Where “and” joins values, the source holds several entries; their conditions need not be identical. Identical values can stand only once.

What was measured:
[1] = target: T1, hM4 (Homo sapiens, UniProt P08173); test: whole-cell [3H]NMS competition binding; settings: hM4, FlpIn CHO cells, mean (±SEM)
T1 construct: HA (hemagglutinin); expressed in transfected cells
T1 sequence (P08173 1-479): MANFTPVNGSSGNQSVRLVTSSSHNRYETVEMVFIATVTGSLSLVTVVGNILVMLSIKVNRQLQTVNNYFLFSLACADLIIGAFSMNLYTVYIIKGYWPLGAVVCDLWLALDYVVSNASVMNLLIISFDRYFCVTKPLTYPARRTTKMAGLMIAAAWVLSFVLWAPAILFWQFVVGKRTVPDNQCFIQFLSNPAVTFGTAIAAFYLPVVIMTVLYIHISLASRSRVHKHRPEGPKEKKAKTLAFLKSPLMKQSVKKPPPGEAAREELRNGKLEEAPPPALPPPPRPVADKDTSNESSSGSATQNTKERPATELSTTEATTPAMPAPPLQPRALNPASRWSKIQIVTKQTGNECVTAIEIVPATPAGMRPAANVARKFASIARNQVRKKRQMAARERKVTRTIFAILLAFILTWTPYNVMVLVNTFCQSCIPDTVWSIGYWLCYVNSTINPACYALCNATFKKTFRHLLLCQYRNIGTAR

[2] = target: T2, hM1 (Homo sapiens, UniProt P11229); test: IP-One accumulation assay; type: cell-based; settings: wildtype hM1
T2 sequence (P11229 1-460): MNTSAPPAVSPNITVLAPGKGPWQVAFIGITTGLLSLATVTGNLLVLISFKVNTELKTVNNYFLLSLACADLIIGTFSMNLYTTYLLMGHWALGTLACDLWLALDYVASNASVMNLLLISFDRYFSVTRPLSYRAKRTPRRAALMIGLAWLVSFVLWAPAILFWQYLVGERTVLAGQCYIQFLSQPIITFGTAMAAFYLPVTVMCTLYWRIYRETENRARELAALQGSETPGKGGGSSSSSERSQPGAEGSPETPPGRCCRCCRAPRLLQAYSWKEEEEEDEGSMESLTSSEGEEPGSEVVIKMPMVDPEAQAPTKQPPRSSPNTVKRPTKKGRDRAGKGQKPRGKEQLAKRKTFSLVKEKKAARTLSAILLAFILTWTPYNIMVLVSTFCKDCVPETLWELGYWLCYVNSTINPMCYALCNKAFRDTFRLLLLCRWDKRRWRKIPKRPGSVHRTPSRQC

[3] = target: T2, hM1; test: ERK1/2 phosphorylation (pERK1/2) assay; type: cell-based; settings: wildtype hM1
[4] = target: T1, hM4; test: inhibition of isoproterenol-stimulated cAMP production; type: cell-based; settings: hM4, inhibition of isoproterenol elevated cAMP, mean (±SEM)
[5] = target: T3, hM3Dq (Homo sapiens, UniProt P20309, A239G/Y149C); test: Gq-mediated calcium release (FLIPR) assay; type: cell-based; settings: CHO cells, mean ± SEM, read-out: pEC50 calcium mobilization (converted)
T3 construct: expressed in transfected cells

[6] = target: T4, 318 nonolfactory human GPCRs (Homo sapiens, UniProt O00222); type: cell-based; settings: GRM8; C21 5 µM
T4 construct: expressed in transfected cells; host or cells: HTLA cells, transient

[7] = target: T5, 318 nonolfactory human GPCRs (Homo sapiens, UniProt P32248); type: cell-based; settings: CCR7; C21 5 µM
T5 construct: expressed in transfected cells; host or cells: HTLA cells, transient

[8] = target: T6, 318 nonolfactory human GPCRs (Homo sapiens, UniProt Q9UJ42); type: cell-based; settings: GPR160; C21 5 µM
T6 construct: expressed in transfected cells; host or cells: HTLA cells, transient

[9] = target: T7, 318 nonolfactory human GPCRs (Homo sapiens, UniProt Q9Y2T5); type: cell-based; settings: GPR52; C21 5 µM
T7 construct: expressed in transfected cells; host or cells: HTLA cells, transient

[10] = target: dopamine D2 receptors (Homo sapiens, UniProt P14416); test: cAMP signaling concentration-response, agonist mode; type: cell-based
Description: (§1) HEK293 T cells were used for transient transfections and Gi mediated cAMP production assays. Assays were performed according to published procedures (PMID25895059, PRESTO-Tango paper). More detailed assay protocols are available at NIMH PDSP Web site (http://pdspdb.unc.edu/pdspWeb/?site=assays).

[11] = target: dopamine D3 receptors (Homo sapiens, UniProt P35462); test: as above; type: cell-based
Description: as §1

[12] = target: T8, histamine H4 receptors (Homo sapiens, UniProt Q9H3N8); test: as above; type: cell-based
T8 construct: expressed in transfected cells; host or cells: HEK293T, transient
Description: as §1

[13] = target: T1, hM4; test: pERK assay, antagonist mode (shift of ACh curve); type: cell-based; settings: hM4, CHO cells
[14] = tested on: hM3Dq-expressing lateral hypothalamic vGAT neurons; test: recordings from lateral hypothalamic vGAT neurons; type: cell-based
[15] = tested on: hM3Dq in LH-vGAT neurons; test: food intake, hM3Dq in LH-vGAT neurons; type: in vivo, mice; settings: 0.3, 1.0, 3.0 mg/kg
[16] = target: T9, hM4Di (Homo sapiens, UniProt P08173, A203G/Y113C); test: inhibition of isoproterenol-stimulated cAMP production; type: cell-based; set-up: expressed in transfected cells; settings: inhibition of isoproterenol elevated cAMP, mean (±SEM)
T9 sequence (P08173 1-479 Y113C/A203G): T1 sequence (P08173 1-479) with Y113C, A203G

[17] = target: T9, hM4Di; test: ERK1/2 phosphorylation (pERK1/2) assay
[18] = tested on: hM3Dq expressed in ARC AgRP neurons; test: food intake, hM3Dq in ARC AgRP neurons (Agrp-ires-Cre mice)

T5 sequence (P32248 25-378): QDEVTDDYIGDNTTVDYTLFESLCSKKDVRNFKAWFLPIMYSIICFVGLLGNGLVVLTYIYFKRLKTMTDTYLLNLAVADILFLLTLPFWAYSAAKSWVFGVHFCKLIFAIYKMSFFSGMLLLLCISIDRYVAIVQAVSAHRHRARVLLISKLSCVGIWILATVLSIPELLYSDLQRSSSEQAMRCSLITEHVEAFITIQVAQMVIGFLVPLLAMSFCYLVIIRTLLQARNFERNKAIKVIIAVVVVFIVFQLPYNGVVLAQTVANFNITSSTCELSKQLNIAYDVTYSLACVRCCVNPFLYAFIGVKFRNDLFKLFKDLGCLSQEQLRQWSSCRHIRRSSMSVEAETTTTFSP
T6 sequence (Q9UJ42 whole entry): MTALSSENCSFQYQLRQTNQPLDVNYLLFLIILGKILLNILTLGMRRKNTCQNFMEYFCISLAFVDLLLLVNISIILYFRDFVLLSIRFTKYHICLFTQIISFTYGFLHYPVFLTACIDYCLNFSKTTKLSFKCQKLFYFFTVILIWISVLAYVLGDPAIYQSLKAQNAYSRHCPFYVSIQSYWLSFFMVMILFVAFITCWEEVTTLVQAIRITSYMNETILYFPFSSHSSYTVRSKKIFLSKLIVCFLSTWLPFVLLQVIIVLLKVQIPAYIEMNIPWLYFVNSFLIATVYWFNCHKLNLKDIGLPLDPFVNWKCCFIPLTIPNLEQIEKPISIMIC
T4 sequence (O00222 34-908): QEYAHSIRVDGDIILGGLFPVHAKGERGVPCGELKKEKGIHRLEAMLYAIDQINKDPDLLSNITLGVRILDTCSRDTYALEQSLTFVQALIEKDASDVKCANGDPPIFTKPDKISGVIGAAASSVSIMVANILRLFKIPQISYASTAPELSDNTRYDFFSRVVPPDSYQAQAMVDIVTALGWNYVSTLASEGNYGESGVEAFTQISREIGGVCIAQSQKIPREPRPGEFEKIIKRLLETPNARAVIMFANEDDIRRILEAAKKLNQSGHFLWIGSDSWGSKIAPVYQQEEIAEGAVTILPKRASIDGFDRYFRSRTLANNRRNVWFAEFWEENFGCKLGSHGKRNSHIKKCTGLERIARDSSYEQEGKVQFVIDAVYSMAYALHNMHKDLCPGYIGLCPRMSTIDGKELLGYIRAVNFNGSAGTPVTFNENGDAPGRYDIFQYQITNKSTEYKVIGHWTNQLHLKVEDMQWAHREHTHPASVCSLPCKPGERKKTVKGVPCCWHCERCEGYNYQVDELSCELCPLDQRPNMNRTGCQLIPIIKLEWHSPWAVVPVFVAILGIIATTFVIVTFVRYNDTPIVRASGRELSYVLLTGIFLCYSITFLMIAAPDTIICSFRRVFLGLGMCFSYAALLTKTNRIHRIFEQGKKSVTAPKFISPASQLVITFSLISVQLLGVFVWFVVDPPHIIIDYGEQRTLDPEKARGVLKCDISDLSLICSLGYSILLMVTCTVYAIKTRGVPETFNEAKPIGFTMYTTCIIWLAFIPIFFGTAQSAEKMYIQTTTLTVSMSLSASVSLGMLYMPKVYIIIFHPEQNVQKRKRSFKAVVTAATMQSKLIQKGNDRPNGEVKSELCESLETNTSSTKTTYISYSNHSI
T7 sequence (Q9Y2T5 whole entry): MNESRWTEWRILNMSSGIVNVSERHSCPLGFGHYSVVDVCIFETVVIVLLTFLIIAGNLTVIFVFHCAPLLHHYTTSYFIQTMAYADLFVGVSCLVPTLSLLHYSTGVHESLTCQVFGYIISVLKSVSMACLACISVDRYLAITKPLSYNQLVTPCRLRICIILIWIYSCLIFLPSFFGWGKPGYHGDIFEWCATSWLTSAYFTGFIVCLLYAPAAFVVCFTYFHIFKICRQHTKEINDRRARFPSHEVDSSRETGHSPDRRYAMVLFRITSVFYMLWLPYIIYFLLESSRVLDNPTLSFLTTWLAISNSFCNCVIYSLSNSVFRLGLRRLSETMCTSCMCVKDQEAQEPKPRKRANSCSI
Chain of dopamine D3 receptors (P35462 whole entry): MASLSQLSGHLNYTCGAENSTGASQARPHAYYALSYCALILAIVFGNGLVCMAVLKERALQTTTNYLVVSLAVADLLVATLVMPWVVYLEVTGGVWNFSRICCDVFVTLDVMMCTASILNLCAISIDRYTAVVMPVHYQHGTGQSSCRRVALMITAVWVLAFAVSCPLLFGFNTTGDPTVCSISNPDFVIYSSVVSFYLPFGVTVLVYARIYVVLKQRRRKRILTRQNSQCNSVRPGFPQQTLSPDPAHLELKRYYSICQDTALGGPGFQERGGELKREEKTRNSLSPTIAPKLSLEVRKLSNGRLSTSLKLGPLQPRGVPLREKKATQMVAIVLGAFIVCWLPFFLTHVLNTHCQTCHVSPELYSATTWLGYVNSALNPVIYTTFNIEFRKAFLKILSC
T3 sequence (P20309 whole entry Y149C/A239G): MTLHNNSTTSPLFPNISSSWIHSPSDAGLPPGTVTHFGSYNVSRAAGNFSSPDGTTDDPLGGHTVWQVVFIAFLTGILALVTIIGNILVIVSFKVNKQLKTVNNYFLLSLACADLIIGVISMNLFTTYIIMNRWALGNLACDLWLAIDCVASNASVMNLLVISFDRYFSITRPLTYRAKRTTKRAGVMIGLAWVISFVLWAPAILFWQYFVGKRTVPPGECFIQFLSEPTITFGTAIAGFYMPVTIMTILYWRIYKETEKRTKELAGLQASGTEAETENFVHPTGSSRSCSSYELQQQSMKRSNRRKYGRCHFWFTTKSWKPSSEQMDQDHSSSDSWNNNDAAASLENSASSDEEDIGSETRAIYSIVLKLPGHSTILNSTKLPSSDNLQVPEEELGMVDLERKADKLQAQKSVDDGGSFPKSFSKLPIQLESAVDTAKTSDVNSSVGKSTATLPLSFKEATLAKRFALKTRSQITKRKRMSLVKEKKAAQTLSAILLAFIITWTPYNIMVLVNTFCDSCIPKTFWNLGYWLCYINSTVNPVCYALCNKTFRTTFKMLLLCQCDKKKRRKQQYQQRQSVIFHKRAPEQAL
T8 sequence (Q9H3N8 whole entry): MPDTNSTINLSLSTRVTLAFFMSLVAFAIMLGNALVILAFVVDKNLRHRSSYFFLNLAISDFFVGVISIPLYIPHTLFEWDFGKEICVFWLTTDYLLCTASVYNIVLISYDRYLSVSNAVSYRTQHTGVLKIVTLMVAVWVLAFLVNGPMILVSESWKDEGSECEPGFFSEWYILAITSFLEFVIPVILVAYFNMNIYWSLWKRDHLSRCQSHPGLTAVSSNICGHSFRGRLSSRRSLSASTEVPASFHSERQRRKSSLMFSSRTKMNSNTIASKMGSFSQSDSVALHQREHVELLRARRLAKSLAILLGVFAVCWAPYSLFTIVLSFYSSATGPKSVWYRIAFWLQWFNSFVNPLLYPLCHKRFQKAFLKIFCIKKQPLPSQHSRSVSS
Chain of dopamine D2 receptors (P14416 whole entry): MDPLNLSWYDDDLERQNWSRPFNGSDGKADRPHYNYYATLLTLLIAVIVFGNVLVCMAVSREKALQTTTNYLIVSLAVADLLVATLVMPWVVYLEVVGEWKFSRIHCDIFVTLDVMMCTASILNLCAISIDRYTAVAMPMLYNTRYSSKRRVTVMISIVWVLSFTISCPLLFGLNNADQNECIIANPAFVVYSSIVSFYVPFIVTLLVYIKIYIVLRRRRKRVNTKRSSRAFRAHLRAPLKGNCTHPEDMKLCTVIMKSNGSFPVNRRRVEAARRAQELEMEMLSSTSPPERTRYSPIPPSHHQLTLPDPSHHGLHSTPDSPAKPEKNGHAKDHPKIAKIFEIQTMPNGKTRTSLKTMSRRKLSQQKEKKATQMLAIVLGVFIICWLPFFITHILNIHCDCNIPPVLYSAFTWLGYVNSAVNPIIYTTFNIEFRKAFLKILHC

c1ccc2c(c1)N=C(N1CCNCC1)c1ccccc1N2 [C21, 11-(1-piperazinyl)-5H-dibenzo[b,e][1,4]diazepine]
Ki [1]: 3630 nM | agonist activity in IP1 assay [2]: no agonist activity | agonist activity in pERK1/2 assay [3]: no agonist activity | EC50 [4]: 1860 nM | EC50 [5]: 3.31 nM | FOLD OVER BASAL [6]: 0.7 fold and 0.9 fold and 0.6 fold | FOLD OVER BASAL [7]: 1.6 fold and 0.9 fold and 0.8 fold | FOLD OVER BASAL [8]: 1.3 fold and 1 fold and 0.8 fold | FOLD OVER BASAL [9]: 0.8 fold and 1 fold and 0.6 fold | agonist activity, follow-up concentration-response (cAMP) [10]: minimal activity | agonist activity, follow-up concentration-response (cAMP) [11]: minimal activity | agonist activity, follow-up concentration-response (cAMP) [12]: minimal activity | antagonist activity (shift of acetylcholine curve, pERK) [13]: weak functional antagonism | depolarization of neurons [14]: depolarization | food intake [15]: drives feeding in a dose-dependent fashion | EC50 [16]: 17.8 nM | EC50 [17]: 17 nM | food intake, light cycle, sated mice ([18]; AgRP-ires-Cre mice with AAV-DIO-hM3Dq-mCherry, i.p.): dose-dependently promoted food consumption at comparable levels to CNO | food intake in control mice ([18]; wildtype (non-Cre-expressing) littermates injected with AAV-DIO-hM3Dq-mCherry): neither C21 nor CNO affected feeding behavior
